One may read the IC50 as the concentration at which inhibition is half-maximal.

These results are taken from patent US7605168B2 (Plexxikon, Inc., priority 2004, dated 2009).

Structures are written as SMILES.

The test system of assay [1] is TNF-α release from whole blood cultures stimulated with LPS. As to the kind of experiment: IC50 by TNF alpha production upon stimulation of whole blood cultures with LPS. The class given is cell-based. The conditions noted are these: human whole blood (buffy coat) culture, 100 ng/ml LPS, 4 hours; read-out: h TNFα IC50. In outline: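 Human buffy coat, diluted with 7 volumes of RPMI/2.5% heat-inactivated FBS, was preincubated with compound (8-point 1:3 series) for 1 h at 37 °C. It was then stimulated with 100 ng/ml LPS (final) for 4 h. Supernatant TNF-α was measured by sandwich ELISA at 450 nm, and IC50 was set between DMSO (0%) and PDE4-inhibitor (100%) controls.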

Assay [2] deals with T1, PDE4B: catalytic domain of human PDE4B from S152-S528 (Homo sapiens, UniProt Q07343).
T1 construct: The catalytic domain of human PDE4B from S152-S528; His6 (N, cleaved yes); thrombin cleavage site (N, cleaved yes); made in house; host or cells: E. coli BL21 (DE3) RIL
T1 sequence (Q07343 324-700): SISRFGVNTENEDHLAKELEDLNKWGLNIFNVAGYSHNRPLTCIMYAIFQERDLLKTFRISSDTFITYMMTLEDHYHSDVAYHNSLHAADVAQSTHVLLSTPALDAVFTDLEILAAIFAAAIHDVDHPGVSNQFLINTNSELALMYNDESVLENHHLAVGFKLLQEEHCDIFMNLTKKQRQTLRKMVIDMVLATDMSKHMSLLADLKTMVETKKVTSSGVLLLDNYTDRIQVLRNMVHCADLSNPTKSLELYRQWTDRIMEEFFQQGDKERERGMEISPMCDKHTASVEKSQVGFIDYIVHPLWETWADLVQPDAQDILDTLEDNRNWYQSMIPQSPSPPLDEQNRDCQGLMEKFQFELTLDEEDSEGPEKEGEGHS
As to the kind of experiment: PDE4 IC50 determination by Scintillation Proximity Assay (SPA), PDE4B catalytic domain. The conditions noted are these: [3H]cAMP SPA, 30 min at 30° C. The class given is biochemical. In short, it runs like this: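 Human PDE4B catalytic domain (80 ng/ml) hydrolysed [3H]cAMP in 50 mM Tris pH 7.5, 8.3 mM MgCl, 1.7 mM EGTA, 0.01% BSA for 30 min at 30 °C. Reaction was stopped with yttrium silicate SPA beads in 18 mM ZnSO4, and bound [3H]AMP was counted by scintillation. IC50 came from non-linear regression.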
On the technique in general: In a scintillation proximity assay essentially only radioactivity close to the scintillant gives light.

For assay [3], the system named is TNFα levels in serum of LPS-challenged rats. Nature of the assay: Rat inhibition studies: serum TNFα after iv LPS challenge. It counts as in vivo. The conditions noted are these: LPS 0.1 mg/kg iv 2 h after dosing, percent decrease in serum TNFα versus vehicle, read-out: % inhibition r TNFα. How it is done:
All studies were done with male rats CD (SD) IGS BR (Crl) (Charles River, France), which were grouped in to 5 animal groups.
At the end of the acclimatization period, the non-fasted rats were weighed, individually identified on the tail with a permanent marker and administered by oral (po) or interperitoneal (ip) route with either vehicle, reference or test compound in a volume of 10 mL/kg adapted to the body weight. The animals were gathered in groups of 5 animals in a polystyrene labeled cage with sawdust covered floors. 2-hours after vehicle, reference or test substance administration, rats received an intravenous (iv) injection of 0.1 mg/kg LPS in a volume of 1 mL/kg of body weight. 2 h after LPS challenge (or as indicated in Tables 3B and 4B), blood samples were collected into tubes without anticoagulant by retro-orbital puncture under gas (isoflurane) anesthesia. Samples were allowed to clot at room temperature for 5 to 10 min then put on ice until there were prepared by centrifugation (6000×g for 3 min at 4° C.) and stored at −20° C. until use. TNFα levels were measured in serum samples in duplicate by ELISA technique according to the manufacturer's procedure (Rat TNFα kit Quantikine M (RTA00, R&D System, France)). Data are reported as percent decrease in observed TNFα levels versus TNFα levels observed for vehicle dosed animal groups.

The target in assay [4] is T2, PDE4B2: full-length human PDE4B2 isozyme (Homo sapiens, UniProt Q07343).
T2 construct: made in house; host or cells: baculovirus infected insect cells (pFastBacHT)
T2 sequence (Q07343 with tags, fused parts or gaps isoform Q07343-2): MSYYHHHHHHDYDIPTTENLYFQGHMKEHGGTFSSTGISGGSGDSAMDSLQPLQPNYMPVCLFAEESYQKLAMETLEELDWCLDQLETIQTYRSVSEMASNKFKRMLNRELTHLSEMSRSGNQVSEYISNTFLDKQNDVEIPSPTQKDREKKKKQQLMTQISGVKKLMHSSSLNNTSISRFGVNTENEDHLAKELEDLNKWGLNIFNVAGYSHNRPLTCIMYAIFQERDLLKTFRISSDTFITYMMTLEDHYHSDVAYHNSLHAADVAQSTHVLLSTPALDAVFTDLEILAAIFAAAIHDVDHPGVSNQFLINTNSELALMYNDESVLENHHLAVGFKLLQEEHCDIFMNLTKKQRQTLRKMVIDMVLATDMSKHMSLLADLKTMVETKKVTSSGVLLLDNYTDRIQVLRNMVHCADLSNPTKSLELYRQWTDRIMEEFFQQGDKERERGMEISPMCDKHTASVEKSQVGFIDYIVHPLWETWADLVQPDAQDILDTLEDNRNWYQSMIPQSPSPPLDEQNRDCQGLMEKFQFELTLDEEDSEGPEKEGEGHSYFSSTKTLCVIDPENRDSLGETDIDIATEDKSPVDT
As to the kind of experiment: PDE4 IC50 determination by Scintillation Proximity Assay (SPA), full-length PDE4B2. The class given is biochemical. The conditions noted are these: cell lysate, [3H]cAMP SPA. In outline:
(§1)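 Unpurified enzyme from cell lysates (PDE4B2 2.5 μl, PDE4D5 0.083 μl of 50% glycerol stock/ml) hydrolysing [3H]cAMP in 50 mM Tris pH 7.5, 8.3 mM MgCl, 1.7 mM EGTA, 0.01% BSA, 30 min at 30 °C. Stopped with yttrium silicate SPA beads in 18 mM ZnSO4; bead-bound [3H]AMP counted. IC50 by non-linear regression.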

In assay [5] the target is T3, PDE4D5: full-length human PDE4D5 isozyme (Homo sapiens, UniProt Q08499).
T3 construct: made in house; host or cells: baculovirus infected insect cells (pFastBacHT)
T3 sequence (Q08499 with tags, fused parts or gaps isoform Q08499-6): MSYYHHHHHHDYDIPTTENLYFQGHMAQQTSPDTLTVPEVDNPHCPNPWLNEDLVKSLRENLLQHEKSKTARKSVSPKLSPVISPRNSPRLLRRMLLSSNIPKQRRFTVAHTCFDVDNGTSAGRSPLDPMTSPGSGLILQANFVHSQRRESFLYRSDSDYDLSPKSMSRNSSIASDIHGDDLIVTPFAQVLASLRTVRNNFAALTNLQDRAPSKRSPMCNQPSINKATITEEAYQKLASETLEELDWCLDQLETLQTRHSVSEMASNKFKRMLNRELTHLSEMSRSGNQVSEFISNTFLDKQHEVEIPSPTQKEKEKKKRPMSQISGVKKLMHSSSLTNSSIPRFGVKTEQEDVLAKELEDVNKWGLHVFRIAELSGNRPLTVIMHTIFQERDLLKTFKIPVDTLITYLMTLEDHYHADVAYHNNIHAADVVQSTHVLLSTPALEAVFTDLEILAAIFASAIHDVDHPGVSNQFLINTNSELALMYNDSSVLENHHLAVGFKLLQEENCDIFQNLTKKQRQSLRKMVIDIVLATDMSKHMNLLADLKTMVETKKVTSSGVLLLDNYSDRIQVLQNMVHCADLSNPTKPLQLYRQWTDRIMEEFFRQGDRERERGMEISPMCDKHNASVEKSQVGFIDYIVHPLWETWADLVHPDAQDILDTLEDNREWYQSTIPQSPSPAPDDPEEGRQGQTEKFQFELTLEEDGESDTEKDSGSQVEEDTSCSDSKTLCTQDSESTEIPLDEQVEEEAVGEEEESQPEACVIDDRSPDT
Nature of the assay: PDE4 IC50 determination by Scintillation Proximity Assay (SPA), full-length PDE4D5. Particulars: cell lysate, [3H]cAMP SPA. It counts as biochemical. In short, it runs like this:
as §1

Assay [6] addresses T4, PDE4D: catalytic domain S316-V692 (Homo sapiens, UniProt Q08499).
T4 construct: pET15S PDE4D S316-V692-X; His6 (N, cleaved yes); thrombin cleavage site (N, cleaved yes); made in house; host or cells: E. coli BL21 (DE3) RIL
Nature of the assay: PDE4 IC50 determination by Scintillation Proximity Assay (SPA), PDE4D catalytic domain. It counts as biochemical. Particulars: [3H]cAMP SPA, 30 min at 30° C. How it is done: IC50s were determined by Scintillation Proximity Assay (SPA). The principle of the assay is based on the fact that cAMP, the PDE4 substrate, binds weakly to Yittrium Silicate SPA beads, whereas AMP, the product of PDE4 hydrolysis binds strongly. Thus, the extent of PDE4 hydrolysis of a sample of [^3H]cAMP can be measured because only the [^3H]AMP produced by PDE4 hydrolysis will bind to the SPA beads and produce a scintillation signal.
[…] Enzyme was stored in 50% glycerol at −20°. See Example 144.
Compounds tested (see Tables 5 for compounds and results) were 3-fold serially diluted 11 times in DMSO from a starting concentration of 4 mM or 40 μM, depending on compound potency. 1 μl of each dilution was transferred into duplicate wells of a white polystyrene 384-well assay plate (Corning #3710). In addition to the compound dilutions, each assay plate contained control wells with 1 μl of DMSO (to define 0% enzyme inhibition) or 1 μl of 200 μM roflumilast (to define 100% enzyme inhibition). Using a Beckman FX robot, 10 μl of [^3H] cAMP (Amersham TRK559) at […] in assay buffer (50 mM Tris, pH 7.5; 8.3 mM MgCl; 1.7 mM EGTA; 0.01% BSA) was transferred to each assay well. Next, 10 μl of PDE4 enzyme in assay buffer was added and the plates were shaken for 30 s. at 1000 rpm to start the cAMP hydrolysis reaction. The concentrations of enzyme used were: PDE4B, 80 ng/ml; PDE4D, 4 ng/ml; PDE4B2, 2.5 μl of 50% glycerol stock/ml; PDE4D5 0.083 μl of 50% glycerol stock/ml. Assay plates were covered and incubated for 30 min. at 30° C. Reactions were stopped by robotic addition of 10 μl of 5 mg/ml SPA beads (Amersham RPNQ0013) in 18 mM ZnSO4. The assay plates were covered with clear plastic film, centrifuged for 1 min. at 1000 RPM to settle the SPA beads, and counted using a Wallac TriLux scintillation counter. IC50's were calculated from the raw assay data by non-linear regression curve fitting using the Assay Explorer software package from MDL.

T4 sequence (Q08499 380-756): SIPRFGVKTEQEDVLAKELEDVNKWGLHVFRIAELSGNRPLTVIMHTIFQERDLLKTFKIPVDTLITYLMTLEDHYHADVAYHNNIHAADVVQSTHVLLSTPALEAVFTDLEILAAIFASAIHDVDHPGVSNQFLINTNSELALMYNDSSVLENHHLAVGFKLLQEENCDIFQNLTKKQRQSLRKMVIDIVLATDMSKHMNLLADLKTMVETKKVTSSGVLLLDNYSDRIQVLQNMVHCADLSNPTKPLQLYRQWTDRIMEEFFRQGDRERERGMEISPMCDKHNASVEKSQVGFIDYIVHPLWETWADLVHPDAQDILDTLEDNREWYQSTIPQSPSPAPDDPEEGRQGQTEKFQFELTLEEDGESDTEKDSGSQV

For `COc1ccc(-c2cn(S(=O)(=O)c3cccc4cccnc34)c3ncccc23)cc1OC` [Compound 7, 8-[3-(3,4-dimethoxy-phenyl)-pyrrolo[2,3-b]pyridine-1-sulfonyl]-quinoline], the IC50 in assay [1] was not above 10 µM; in assay [2], less than 10 µM; in assay [4], less than 10 µM; in assay [5], less than 10 µM. In addition, in assay [3] (50 mg/kg po or ip), the inhibition in vivo at 50 mg/kg is not below 20%.

On to `CCOc1ccc2ccccc2c1C(=O)n1ccc2c(-c3ccc(OC)c(OC)c3)ccnc21` [Compound 48, [4-(3,4-Dimethoxy-phenyl)-pyrrolo[2,3-b]pyridin-1-yl]-(2-ethoxy-naphthalen-1-yl)-methanone], for which the IC50 is not above 10 µM in assay [1], less than 10 µM in assay [2], less than 10 µM in assay [4] and less than 10 µM in assay [5]. Further, in assay [3] (5 mg/kg po), the inhibition in vivo at 5 mg/kg was not below 20%.

On to `COc1ccc(-c2cn(S(=O)(=O)c3cccc4cc(C)cnc34)c3ccc(Cl)cc23)cc1OC` [Compound 96, 8-[5-Chloro-3-(3,4-Dimethoxy-phenyl)-indole-1-sulfonyl]-3-methyl-quinoline], for which the IC50 is not above 10 µM in assay [1]; less than 10 µM in assay [2]; not above 10 µM in assay [6]; less than 10 µM in assay [4]; less than 10 µM in assay [5].

In the case of `COc1ccc(-c2cn(S(=O)(=O)c3cccc4cccnc34)c3ccccc23)cc1OC1CCCC1` [Compound 100, 8-[3-(3-Cyclopentyloxy-4-methoxy-phenyl)-indole-1-sulfonyl]-quinoline], the IC50 in assay [1] was not above 10 µM; in assay [2] it was less than 10 µM; in assay [6] it was not above 10 µM; in assay [4], less than 10 µM; in assay [5], less than 10 µM.

As to `COc1ccc(-c2cn(S(=O)(=O)c3ccccc3)c3ncccc23)cc1OC1CCCC1` [Compound 101, 1-Benzenesulfonyl-3-(3-cyclopentyloxy-4-methoxy-phenyl)-1H-pyrrolo[2,3-b]pyridine], the IC50 in assay [1] is not above 10 µM; in assay [2], less than 10 µM; in assay [6], not above 10 µM; in assay [4], less than 10 µM; in assay [5], less than 10 µM.

For `COc1ccc(-c2cn(S(=O)(=O)c3cccc4cccnc34)c3ncccc23)cc1OC1CCCC1` [Compound 102, 8-[3-(3-Cyclopentyloxy-4-methoxy-phenyl)-pyrrolo[2,3-b]pyridine-1-sulfonyl]-quinoline], the IC50 is not above 10 µM in assay [1]; less than 10 µM in assay [2]; not above 10 µM in assay [6]; less than 10 µM in assay [4]; less than 10 µM in assay [5].

`COc1ccc(-c2cn(C(=O)c3ccc(N(C)C)c4ccccc34)c3ncccc23)cc1OC` [Compound 109, [3-(3,4-Dimethoxy-phenyl)-pyrrolo[2,3-b]pyridin-1-yl]-(4-dimethylamino-naphthalen-1-yl)-methanone]: the IC50 in assay [1] was not above 10 µM; in assay [2] it was less than 10 µM; in assay [6], not above 10 µM; in assay [4] it was less than 10 µM; in assay [5], less than 10 µM.

For the molecule `COc1ccc(-c2cn(C(=O)c3c(OCC(F)(F)F)ccc4ccccc34)c3ncccc23)cc1OC` [Compound 112, [3-(3,4-Dimethoxy-phenyl)-pyrrolo[2,3-b]pyridin-1-yl]-[2-(2,2,2-trifluoro-ethoxy)-naphthalen-1-yl]-methanone], the inhibition in vivo at 3 mg/kg in assay [3] (3 mg/kg po) is not below 20%. Further, the IC50 in assay [4] and in assay [5] was less than 10 µM in each case.

Regarding `CCCOc1ccccc1C(=O)n1cc(-c2ccc(OC)c(OC)c2)c2cccnc21` [Compound 113, [3-(3,4-Dimethoxy-phenyl)-pyrrolo[2,3-b]pyridin-1-yl]-(2-propoxy-phenyl)-methanone], the IC50 in assay [1] was not above 10 µM; in assay [2] it was less than 10 µM; in assay [6], not above 10 µM; in assay [4], less than 10 µM; in assay [5], less than 10 µM.

`COc1ccc(-c2cn(C(=O)c3ccnc4ccccc34)c3ncccc23)cc1OC` [Compound 115, [3-(3,4-Dimethoxy-phenyl)-pyrrolo[2,3-b]pyridin-1-yl]-quinolin-4-yl-methanone]: the IC50 was not above 10 µM in assay [1]; less than 10 µM in assay [2]; not above 10 µM in assay [6]; less than 10 µM in assay [4]; less than 10 µM in assay [5].

For the molecule `COc1ccc(-c2cn(C(=O)c3cc(C)nc4ccccc34)c3ncccc23)cc1OC` [Compound 116, [3-(3,4-Dimethoxy-phenyl)-pyrrolo[2,3-b]pyridin-1-yl]-(2-methyl-quinolin-4-yl)-methanone], the IC50 in assay [1] was not above 10 µM; in assay [2], less than 10 µM; in assay [6], not above 10 µM; in assay [4], less than 10 µM; in assay [5] it was less than 10 µM.

With `CCOc1cc(N)ccc1C(=O)n1cc(-c2ccc(OC)c(OC)c2)c2cccnc21` [Compound 144, (4-Amino-2-ethoxy-phenyl)-[3-(3,4-dimethoxy-phenyl)-pyrrolo[2,3-b]pyridin-1-yl]-methanone], the IC50 was not above 10 µM in assay [1]; less than 10 µM in assay [2]; not above 10 µM in assay [6]; less than 10 µM in assay [4]; less than 10 µM in assay [5].

As to `CCOc1cc(NS(C)(=O)=O)ccc1C(=O)n1cc(-c2ccc(OC)c(OC)c2)c2cccnc21` [Compound 145, N-{4-[3-(3,4-Dimethoxy-phenyl)-pyrrolo[2,3-b]pyridine-1-carbonyl]-3-ethoxy-phenyl}-methanesulfonamide], the IC50 in assay [1] is not above 10 µM; in assay [2], less than 10 µM; in assay [6], not above 10 µM; in assay [4], less than 10 µM; in assay [5], less than 10 µM.
